The record followed here is US10077284B2, “UBA5 inhibitors” (THE GOVERNING COUNCIL OF THE UNIVERSITY OF TORONTO, priority 2014, dated 2018).

The target of this assay is T1, GST-UBA5 (Homo sapiens, UniProt Q9GZZ9).
T1 construct: made in house
Description: UBA5 transthiolation assay (UFC1-UFM1 conjugate formation). The format is biochemical. The settings on record: for inhibition at 0.1 µM: [Ligand] 0.1 μM; for inhibition at 0.1 µM / inhibition at 1 µM / inhibition at 5 µM / inhibition at 10 µM / inhibition at 50 µM / inhibition at 100 µM: n = 1; for inhibition at 1 µM: [Ligand] 1 μM; for inhibition at 5 µM: [Ligand] 5 μM; for inhibition at 10 µM: [Ligand] 10 μM; for inhibition at 50 µM: [Ligand] 50 μM; for inhibition at 100 µM: [Ligand] 100 μM; for IC50: read-out: IC50.

The mark [1] stands for this setting: Table 1, transthiolation enzymatic assay.
The mark [2] stands for this setting: Table 3, n = 3, tested 0.1-100 μM.

Where two headings read alike, the source gives them in different places. Bounds are passed on as bounds.

T1 sequence (Q9GZZ9 whole entry): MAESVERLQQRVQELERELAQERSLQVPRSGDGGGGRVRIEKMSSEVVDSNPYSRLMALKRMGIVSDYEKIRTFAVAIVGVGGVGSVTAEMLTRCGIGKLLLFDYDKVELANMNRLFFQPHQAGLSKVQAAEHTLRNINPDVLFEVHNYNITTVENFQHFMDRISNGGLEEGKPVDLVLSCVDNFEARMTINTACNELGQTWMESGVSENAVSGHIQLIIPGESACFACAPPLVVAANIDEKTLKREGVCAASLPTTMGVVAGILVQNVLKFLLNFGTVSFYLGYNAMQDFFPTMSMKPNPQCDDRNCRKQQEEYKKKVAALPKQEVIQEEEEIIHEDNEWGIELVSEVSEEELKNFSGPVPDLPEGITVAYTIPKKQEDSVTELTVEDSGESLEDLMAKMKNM
Description: Initial rates were recorded over 30 second time intervals from 0 to 2.5 min (normal kinetics) or 0 to 5 min (inhibition kinetics). Reactions were initiated by the addition of ATP and stopped using 4× Laemmli sample buffer (BioRad). The generated protein conjugates were separated on a 10% non-degenerating SDS-polyacrylamide gel (4-15% gels were used for the UAE transthiolaton assay), followed by Western blot analysis, with the exception of GST-UBA5 where protein bands were detected using Coomassie™ Brilliant Blue R-250 staining or Stain-Free gel imaging for the enzymatic assays (Bio-Rad). Transfers for the UAE and NAE immunoblots were performed using nitrocellulose membranes and blocking and blotting was performed as described above with cellular protein extracts. The His6-tagged Ub-UBCH6 complex was detected using an anti-His mouse monoclonal primary antibody (1:500, abcam). A rabbit anti-NEDD8 polyclonal primary antibody (1:500, BostonBiochem) was used for the detection of the E2-NEDD8 complexes. […] Inhibitory data was fit to a dose-response curve (Y=Bottom+(Top−Bottom)/(1+10^(X-Log IC50))) using GraphPad Prism 6.

The inhibition is the share of the control response that was lost under treatment. Low readings indicate a weak effect, high ones a strong effect. In turn, `Nc1ncnc2c1ncn2[C@@H]1O[C@H](C(=O)NCCCC(=O)N2CCNCCNCCNCC2)[C@@H](O)[C@H]1O` [Compound 1.3, (2S,3S,4R,5R)-5-(6-amino-9H-purin-9-yl)-3,4-dihydroxy-N-(4-oxo-4-(1,4,7,10-tetraazacyclododecan-1-yl)butyl)tetrahydrofuran-2-carboxamide] registered an inhibition at 0.1 µM of 24%, an inhibition at 1 µM of 10%, an inhibition at 5 µM of 17% and an inhibition at 10 µM of 28%. In addition, testing at 50 µM gave an inhibition of 11% and the inhibition at 100 µM came to 0%.

Broadly, the IC50 is the concentration needed to halve the response being measured. For `Nc1ncnc2c1ncn2[C@@H]1O[C@H](C(=O)NCCCCC(=O)N2CCNCCNCCNCC2)[C@@H](O)[C@H]1O.[Zn+2]` [Compound 1.4.Zn, (2S,3S,4R,5R)-5-(6-amino-9H-purin-9-yl)-3,4-dihydroxy-N-(5-oxo-5-(1,4,7,10-tetraazacyclododecan-1-yl)pentyl)tetrahydrofuran-2-carboxamide zinc (II) trifluoromethanesulfonate], under setting [1], the IC50 came out at 5.2 µM.

On to “(2S,3S,4R,5R)-5-(6-amino-9H-purin-9-yl)-3,4-dihydroxy-N-(4-oxo-4-(1,4,7,10-tetraazacyclododecan-1-yl)butyl)tetrahydrofuran-2-carboxamide, copper(II) trifluromethanesulfonate [Compound 1.3.Cu]”, for which, under setting [2], the IC50 was more than 100 µM.

Take `C1CNCCNCCNCCN1.[Zn+2]` [zinc(II) cyclen complex, reference compound]: the “effect on the transthiolation reaction” value (at 100 μM) is on record as “able to impede the transthiolation reaction”.

As to `Nc1ncnc2c1ncn2[C@@H]1O[C@H](C(=O)NCCN2CCNCCNCCNCC2)[C@@H](O)[C@H]1O.[Zn+2]` [Compound 1.1.A.Zn, (2S,3S,4R,5R)—N-(2-(1,4,7,10-tetraazacyclododecan-1-yl)ethyl)-5-(6-amino-9H-purin-9-yl)-3,4-dihydroxytetrahydrofuran-2-carboxamide, zinc(II) trifluoromethanesulfonate], under “Table 5, n = 3”, the IC50 turned out to be 7.61 µM.

Regarding “(2S,3S,4R,5R)—N-(2-(1,4,7,10-tetraazacyclododecan-1-yl)ethyl)-5-(6-amino-9H-purin-9-yl)-3,4-dihydroxytetrahydrofuran-2-carboxamide, copper(II) trifluromethanesulfonate [Compound 1.1.A.Cu]”, the IC50 (Table 5, n = 3) was 21.1 µM.

In the case of `Nc1ncnc2c1ncn2[C@@H]1O[C@H](C(=O)NCCCCCC(=O)N2CCNCCNCCNCC2)[C@@H](O)[C@H]1O.O=S(=O)([O-])C(F)(F)F.O=S(=O)([O-])C(F)(F)F.[Cu+2]` [Compound 1.5.Cu, (2S,3S,4R,5R)—N-(6-(1,4,7,10-tetraazacyclododecan-1-yl)-6-oxohexyl)-5-(6-amino-9H-purin-9-yl)-3,4-dihydroxytetrahydrofuran-2-carboxamide copper (II) trifluoromethanesulfonate], the IC50 under setting [2] is more than 100 µM.

As to “(2S,3S,4R,5R)-5-(6-amino-9H-purin-9-yl)-3,4-dihydroxy-N-(2-oxo-2-(1,4,7,10-tetraazacyclododecan-1-yl)ethyl)tetrahydrofuran-2-carboxamide, copper(II) trifluromethanesulfonate [Compound 1.1.Cu]”, under setting [2], the IC50 is more than 100 µM.

Take `Nc1ncnc2c1ncn2[C@@H]1O[C@H](C(=O)NCCN2CCCNCCNCCCNCC2)[C@@H](O)[C@H]1O.[Zn+2]` [Compound 1.1.A.Cy.Zn, (2S,3S,4R,5R)—N-(2-(1,4,8,11-tetraazacyclotetradecan-1-yl)ethyl)-5-(6-amino-9H-purin-9-yl)-3,4-dihydroxytetrahydrofuran-2-carboxamide, zinc(II) trifluoromethanesulfonate]: the IC50 (Table 5, n = 3) is 20 µM.

For “(2S,3S,4R,5R)-5-(6-amino-9H-purin-9-yl)-3,4-dihydroxy-N-(2-oxo-2-(1,4,8,11-tetraazacyclotetradecan-1-yl)ethyl)tetrahydrofuran-2-carboxamide, copper(II) trifluoromethanesulfonate [Compound 1.1.Cy.Cu]”, for the setting “Table 4, n = 3”, the IC50 was 45.4 µM.

Regarding `Nc1ncnc2c1ncn2[C@@H]1O[C@H](C(=O)NCCC(=O)N2CCNCCNCCNCC2)[C@@H](O)[C@H]1O.[Zn+2]` [Compound 1.2.Zn, (2S,3S,4R,5R)-5-(6-amino-9H-purin-9-yl)-3,4-dihydroxy-N-(3-oxo-3-(1,4,7,10-tetraazacyclododecan-1-yl)propyl)tetrahydrofuran-2-carboxamide zinc (II) trifluoromethanesulfonate], under setting [1], the IC50 came to 8.9 µM.

Take “(2S,3S,4R,5R)-5-(6-amino-9H-purin-9-yl)-3,4-dihydroxy-N-(5-oxo-5-(1,4,7,10-tetraazacyclododecan-1-yl)pentyl)tetrahydrofuran-2-carboxamide, copper(II) trifluoromethanesulfonate [Compound 1.4.Cu]”: the IC50 under setting [2] came out at 38.8 µM.

Consider `Nc1ncnc2c1ncn2[C@@H]1O[C@H](C(=O)NCC(=O)N2CCNCCNCCNCC2)[C@@H](O)[C@H]1O` [Compound 1.1, (2S,3S,4R,5R)-5-(6-amino-9H-purin-9-yl)-3,4-dihydroxy-N-(2-oxo-2-(1,4,7,10-tetraazacyclododecan-1-yl)ethyl)tetrahydrofuran-2-carboxamide], for which the inhibition at 0.1 µM is 0%, the inhibition at 1 µM came out at 25%, at 5 µM the inhibition was 41% and the inhibition at 10 µM turned out to be 31%. This compound had an inhibition at 50 µM of 4% and an inhibition at 100 µM of 26%.

Consider “(2S,3S,4R,5R)-5-(6-amino-9H-purin-9-yl)-3,4-dihydroxy-N-(2-oxo-2-(1,4,7,10-tetraazacyclododecan-1-yl)ethyl)tetrahydrofuran-2-carboxamide zinc (II) trifluromethanesulfonate [Compound 1.1.Zn]”, for which the concentration for half-maximal inhibition (IC50) is, setting by setting: under setting [1], 10.5 µM; (Table 5, n = 3) 10.5 µM.

With “(2S,3S,4R,5R)—N-(6-(1,4,7,10-tetraazacyclododecan-1-yl)hexyl)-5-(6-amino-9H-purin-9-yl)-3,4-dihydroxytetrahydrofuran-2-carboxamide, copper(II) trifluromethanesulfonate [Compound 1.5.A.Cu]”, under “Table 5, n = 3”, the half-inhibitory concentration (IC50) is more than 100 µM.

As for “(2S,3S,4R,5R)-5-(6-(((S)-2,3-dihydro-1H-inden-1-yl)amino)-9H-purin-9-yl)-3,4-dihydroxy-N-(6-oxo-6-(1,4,7,10-tetraazacyclododecan-1-yl)hexyl)tetrahydrofuran-2-carboxamide, copper(II) trifluoromethanesulfonate [Compound 1.5.An6.Cu]”, the IC50 (Table 6, n = 3) came to 12.5 µM.

For the compound `Nc1ncnc2c1ncn2[C@@H]1O[C@H](C(=O)NCC(=O)N2CCCNCCNCCCNCC2)[C@@H](O)[C@H]1O.[Zn+2]` [Compound 1.1.Cy.Zn, (2S,3S,4R,5R)-5-(6-amino-9H-purin-9-yl)-3,4-dihydroxy-N-(2-oxo-2-(1,4,8,11-tetraazacyclotetradecan-1-yl)ethyl)tetrahydrofuran-2-carboxamide, zinc(II) trifluromethanesulfonate], the 50% inhibitory concentration (IC50) (Table 4, n = 3) was 4.24 µM.

With `Nc1ncnc2c1ncn2[C@@H]1O[C@H](C(=O)NCCCC(=O)N2CCNCCNCCNCC2)[C@@H](O)[C@H]1O.[Zn+2]` [Compound 1.3.Zn, (2S,3S,4R,5R)-5-(6-amino-9H-purin-9-yl)-3,4-dihydroxy-N-(4-oxo-4-(1,4,7,10-tetraazacyclododecan-1-yl)butyl)tetrahydrofuran-2-carboxamide zinc (II) trifluoromethanesulfonate], under setting [1], the half-maximal inhibitory concentration (IC50) turned out to be 23.3 µM.

Consider “(2S,3S,4R,5R)-5-(6-amino-9H-purin-9-yl)-3,4-dihydroxy-N-(3-oxo-3-(1,4,7,10-tetraazacyclododecan-1-yl)propyl)tetrahydrofuran-2-carboxamide, copper(II) trifluromethanesulfonate [Compound 1.2.Cu]”, for which the IC50 under setting [2] is 39.6 µM.

As for `O=C(NCCCCCC(=O)N1CCNCCNCCNCC1)[C@H]1O[C@@H](n2cnc3c(N[C@H]4CCc5ccccc54)ncnc32)[C@H](O)[C@@H]1O.[Zn+2]` [Compound 1.5.An6.Zn, (2S,3S,4R,5R)-5-(6-(((S)-2,3-dihydro-1H-inden-1-yl)amino)-9H-purin-9-yl)-3,4-dihydroxy-N-(6-oxo-6-(1,4,7,10-tetraazacyclododecan-1-yl)hexyl)tetrahydrofuran-2-carboxamide, zinc(II) trifluoromethanesulfate], where the note is “Table 6, n = 3”, the IC50 was 13.6 µM.

As to `Nc1ncnc2c1ncn2[C@@H]1O[C@H](C(=O)NCCCCCCN2CCNCCNCCNCC2)[C@@H](O)[C@H]1O.[Zn+2]` [Compound 1.5.A.Zn, (2S,3S,4R,5R)—N-(6-(1,4,7,10-tetraazacyclododecan-1-yl)hexyl)-5-(6-amino-9H-purin-9-yl)-3,4-dihydroxytetrahydrofuran-2-carboxamide, zinc(II) trifluromethanesulfonate], where the note is “Table 5, n = 3”, the concentration for half-maximal inhibition (IC50) was 38.2 µM.
